These results are taken from patent publication US10946029B2, “Dry powder formulation comprising a corticosteroid and a beta-adrenergic for administration by inhalation” (CHIESI FARMACEUTICI S.p.A., priority 2012, dated 2021).

Data set [1] is described as follows: Particle size distribution by laser diffraction (Malvern apparatus). The conditions noted are these: micronised beclometasone dipropionate; for Span: [d(v,0.9)−d(v,0.1)]/d(v,0.5); for d (v, 0.1): volume diameter of 10% of the particles; for d (v, 0.5): volume diameter of 50% of the particles; for d (v, 0.9): volume diameter of 90% of the particles. Format: physicochemical. The method, then: The size of the particles active is determined by measuring the characteristic equivalent sphere diameter, known as volume diameter, by laser diffraction. In the reported examples, the volume diameter has been determined using a Malvern apparatus, However, other equivalent apparatus may be used by the skilled person in the art.
(§1) The particle size was determined by laser diffraction using a Malvern apparatus. The parameter taken into consideration was the VD in micron of 10%, 50% and 90% of the particles expressed as d(v,0.1), d(v, 0.5) and d(v, 0.9), respectively, which correspond to the mass diameter assuming a size independent density for the particles. The span [d(v,0.9)−d(v,0.1)]/d(v,0.5) is also reported. The Specific Surface Area (SSA) was determined by BET nitrogen adsorption using a Coulter SA3100 apparatus as a mean of three determinations.

Data set [2] in a line: Specific Surface Area by BET nitrogen adsorption (Coulter SA3100). The conditions noted are these: micronised beclometasone dipropionate; mean of three determinations. Format: physicochemical. The method, then: Advantageously, the micronized particles of BDP have also a specific surface area comprised between 5.5 and 7.0 m^2/g, preferably between 5.9 and 6.8 m^2/g. The Specific Surface Area is determined by Brunauer-Emmett-Teller (BET) nitrogen adsorption method according to a procedure known in the art.
as §1

With `CCC(=O)OCC(=O)[C@@]1(OC(=O)CC)[C@@H](C)C[C@H]2[C@@H]3CCC4=CC(=O)C=C[C@]4(C)[C@@]3(Cl)[C@@H](O)C[C@@]21C` [Batch 1, beclometasone dipropionate], in data set [1], the Span is given as 1.41; the “d (v, 0.1)” value was found to be 0.86 μm; the “d (v, 0.5)” value came to 1.63 μm; the “d (v, 0.9)” value worked out at 3.15 μm. This compound also had an SSA in data set [2] of 6.61 m^2/g.

For the compound `CCC(=O)OCC(=O)[C@@]1(OC(=O)CC)[C@@H](C)C[C@H]2[C@@H]3CCC4=CC(=O)C=C[C@]4(C)[C@@]3(Cl)[C@@H](O)C[C@@]21C` [Batch 2, beclometasone dipropionate], in data set [1], the Span worked out at 1.31; the “d (v, 0.1)” value turned out to be 0.96 μm; the “d (v, 0.5)” value came out at 1.81 μm; the “d (v, 0.9)” value worked out at 3.33 μm. The same compound registered an SSA in data set [2] of 5.90 m^2/g.

For the compound `CCC(=O)OCC(=O)[C@@]1(OC(=O)CC)[C@@H](C)C[C@H]2[C@@H]3CCC4=CC(=O)C=C[C@]4(C)[C@@]3(Cl)[C@@H](O)C[C@@]21C` [Batch 3, beclometasone dipropionate], in data set [1], the Span stood at 1.19; the “d (v, 0.1)” value came to 0.95 μm; the “d (v, 0.5)” value was determined as 1.71 μm; the “d (v, 0.9)” value was 2.97 μm. Besides, in data set [2], the SSA amounted to 6.12 m^2/g.

As for `CCC(=O)OCC(=O)[C@@]1(OC(=O)CC)[C@@H](C)C[C@H]2[C@@H]3CCC4=CC(=O)C=C[C@]4(C)[C@@]3(Cl)[C@@H](O)C[C@@]21C` [Batch 4, beclometasone dipropionate], in data set [1], the Span stood at 1.54; the “d (v, 0.1)” value amounted to 0.91 μm; the “d (v, 0.5)” value was 1.84 μm; the “d (v, 0.9)” value worked out at 3.76 μm. The compound further returned an SSA in data set [2] of 6.28 m^2/g.
